{"source": "patent KR20070037041A", "about": "“누에 수번데기로부터 아데노신 유도체 화합물을 정제하는방법 및 아데노신 유도체 화합물을 포함하는 발기부전치료용 조성물” (대한민국(관리부서:농촌진흥청장), priority 2005, dated 2007)", "key": {"[1]": {"test_system": "bovine endothelial cells (CPAE) [소내피세포(CPAE)]", "format": "cell-based", "settings": "24 h"}, "[2]": {"test_system": "phosphodiesterase I from snake venom (Crotalus atrox), PDE type IV [포스포디에스테라제 I은 뱀독 (Crotalus atrox) 유래 PDE 타입 IV]", "assay": "Phosphodiesterase inhibition ([3H] cAMP SPA)", "format": "biochemical"}, "[3]": {"test_system": "bovine vascular endothelial cells (CPAE cell line) [소혈관 내피세포(CPAE cell line)]", "assay": "NO production in CPAE endothelial cells (total nitrate/nitrite, Nims method)", "format": "cell-based"}, "[4]": {"test_system": "phosphodiesterase (PDE) [포스포디에스터라제]", "assay": "PDE inhibition in combination with existing PDE inhibitors", "format": "biochemical", "settings": "existing PDE inhibitor combined with DX fraction (20, 10, 4 μg); in words"}, "[5]": {"settings": "cited from earlier work"}}}
{"compound": "5-{6-(디메틸아미노)-9H-푸린-9-일}-테트라히드로-4'-푸란-3'-올-5'-o-테트라파이로(tetrafyro)-2H-피란-3'',4'',5''-트리올 [RPC-IV]", "values": [{"measurement": "cell viability", "setting": "[1]", "result": 86.9, "unit": "%"}, {"measurement": "phosphodiesterase inhibition", "setting": "[2]; 0, 2, 10, 20 μg, in words", "result": "용량의존적 저해"}, {"measurement": "IC50", "setting": "[2]; PDE [3H] cAMP SPA", "result": 0.88, "unit": "µg/mL"}, {"measurement": "NO production (540 nm)", "setting": "[3]; RP-HPLC fractions, absorbance at 540 nm", "result": 1.426}, {"measurement": "NO activity", "setting": "[3]; chromatographic fractions, in words", "result": "최대로 방출"}]}
{"compound": "COc1cc2c(cc1OC)-c1c/c(=N\\c3c(C)cc(C)cc3C)n(C)c(=O)n1CC2", "note": "[Trequinsin, 하이드로클로라이드]", "values": [{"measurement": "PDE inhibition on combined administration", "setting": "[4]", "result": "상승작용"}]}
{"compound": "CCCc1nc(C)c2c(=O)[nH]c(-c3cc(S(=O)(=O)N4CCN(CC)CC4)ccc3OCC)nn12", "note": "[레비트라]", "values": [{"measurement": "duration of erection", "setting": "[5]; background", "result": "≤ 36", "unit": "h"}]}
{"compound": "CN1CC(=O)N2[C@H](c3ccc4c(c3)OCO4)c3[nH]c4ccccc4c3C[C@@H]2C1=O", "note": "[시알리스]", "values": [{"measurement": "duration of drug effect", "setting": "[5]; background", "result": "≤ 36", "unit": "h"}]}
{"compound": "CCCOc1ccccc1-c1nc2nn[nH]c2c(=O)[nH]1", "note": "[자프리나스트(zaprinast)]", "values": [{"measurement": "erection induction", "setting": "[5]; compared with Viagra, Trigo-Rocha 1993, Taher 1994", "result": "비아그라보다 다소 낮은 정도로 발기를 유도"}]}
